Laboratory results taken from ChEMBL document CHEMBL1151449, “In vitro activity of DC-159a, a new broad-spectrum fluoroquinolone, compared with that of other agents against drug-susceptible and -resistant pneumococci” (2008).
≈ marks a conversion by molar mass, not a printed value.

How the values were obtained:
Format in all cases: functional
Streptococcus pneumoniae [1] = test: Antibacterial activity against Streptococcus pneumoniae HMC 1060 harboring S81F mutation in quinolone-resistant determining regions of GyrA gene, S79F, K137N mutation in QRDR of ParC gene and I460V mutation in QRDR of ParE gene by agar dilution method
Streptococcus pneumoniae [2] = test: Antibacterial activity against Streptococcus pneumoniae HMC 1066 harboring S81F mutation in quinolone-resistant determining regions of GyrA gene, S79F mutation in QRDR of ParC gene and I460V mutation in QRDR of ParE gene by agar dilution method
Streptococcus pneumoniae [3] = test: Antibacterial activity against Streptococcus pneumoniae HMC 1070 harboring S81F mutation in quinolone-resistant determining regions of GyrA gene, D83N mutation in QRDR of ParC gene and I460V mutation in QRDR of ParE gene by agar dilution method
Streptococcus pneumoniae [4] = test: Antibacterial activity against Streptococcus pneumoniae HMC 1147 harboring S81F mutation in quinolone-resistant determining regions of GyrA gene, S79F mutation in QRDR of ParC gene and I460V mutation in QRDR of ParE gene showing efflux to gemifloxacin by agar dilution method
Streptococcus pneumoniae [5] = test: Antibacterial activity against Streptococcus pneumoniae HMC 1059 harboring S81F mutation in quinolone-resistant determining regions of GyrA gene, S79F, K137N mutation in QRDR of ParC gene and I460N mutation in QRDR of ParE gene by agar dilution method
Streptococcus pneumoniae [6] = test: Antibacterial activity against Streptococcus pneumoniae HMC 1071 harboring S81F mutation in quinolone-resistant determining regions of GyrA gene and S79F, K137N mutation in QRDR of ParC gene by agar dilution method
Streptococcus pneumoniae [7] = test: Antibacterial activity against Streptococcus pneumoniae HMC 1072 harboring S81F mutation in quinolone-resistant determining regions of GyrA gene, S79Y mutation in QRDR of ParC gene and I460V mutation in QRDR of ParE gene by agar dilution method
Streptococcus pneumoniae [8] = test: Antibacterial activity against Streptococcus pneumoniae HMC 1074 harboring S81F mutation in quinolone-resistant determining regions of GyrA gene, S79F mutation in QRDR of ParC gene and I460V mutation in QRDR of ParE gene by agar dilution method
Streptococcus pneumoniae [9] = test: Antibacterial activity against Streptococcus pneumoniae HMC 1077 harboring S81Y and S79F mutation in quinolone-resistant determining regions of GyrA and ParC genes respectively by agar dilution method
Streptococcus pneumoniae [10] = test: Antibacterial activity against Streptococcus pneumoniae HMC 1078 harboring S81F mutation in quinolone-resistant determining regions of GyrA gene, S79F mutation in QRDR of ParC gene and I460V mutation in QRDR of ParE gene by agar dilution method
Streptococcus pneumoniae [11] = test: Antibacterial activity against penicillin-resistant and quinolone-susceptible Streptococcus pneumoniae HMC 228 expressing ermB by broth microdilution method
Streptococcus pneumoniae [12] = test: Antibacterial activity against penicillin- and quinolone-susceptible Streptococcus pneumoniae HMC 5055 expressing mefA after 50 passages by broth microdilution method
Streptococcus pneumoniae [13] = test: Antibacterial activity against quinolone-susceptible and penicillin-intermediate Streptococcus pneumoniae HMC 5048 expressing mefA after 50 passages by broth microdilution method
Streptococcus pneumoniae [14] = test: Antibacterial activity against Streptococcus pneumoniae HMC 3041 after 50 passages by broth microdilution method
Streptococcus pneumoniae [15] = test: (§1) Antibacterial activity against macrolide-, quinolone-susceptible and penicillin-intermediate Streptococcus pneumoniae HMC 99 harboring S81Y and S79Y mutation in quinolone-resistant determining regions of GyrA and ParC genes respectively after 41 passages with moxifloxacin measured after 10 daily antibiotic-free subculturing by multi-step resistance selection technique
Streptococcus pneumoniae [16] = test: as §1, with “100” for “99”, “42” for “41”, “levofloxacin” for “moxifloxacin”
Streptococcus pneumoniae [17] = test: (§2) Antibacterial activity against penicillin-resistant and quinolone-susceptible Streptococcus pneumoniae HMC 228 expressing ermB and harboring S81F mutation in quinolone-resistant determining regions of GyrA gene, D83N mutation in QRDR of ParC gene and I460V mutation in QRDR of ParE gene after 28 passages with DC-159a measured after 10 daily antibiotic-free subculturing by multi-step resistance selection technique
Streptococcus pneumoniae [18] = test: as §2, with “gene, S79Y” for “gene, D83N”, “after 36” for “after 28”, “with moxifloxacin” for “with DC-159a”
Streptococcus pneumoniae [19] = test: Antibacterial activity against penicillin-resistant Streptococcus pneumoniae […] by agar dilution method
Streptococcus pneumoniae [20] = test: Antibacterial activity against azithromycin-susceptible Streptococcus pneumoniae ATCC 49619 by agar dilution method
Streptococcus pneumoniae [21] = test: Antibacterial activity against azithromycin-resistant Streptococcus pneumoniae […] by agar dilution method
Streptococcus pneumoniae [22] = test: Antibacterial activity against quinolone-resistant Streptococcus pneumoniae […] by agar dilution method
Streptococcus pneumoniae [23] = test: Antibacterial activity against Streptococcus pneumoniae HMC 1139 harboring S81F mutation in quinolone-resistant determining regions of GyrA gene, S79F, K137N mutation in QRDR of ParC gene and I460V mutation in QRDR of ParE gene by agar dilution method
Streptococcus pneumoniae [24] = test: Antibacterial activity against Streptococcus pneumoniae HMC 2536 harboring S81Y mutation in quinolone-resistant determining regions of GyrA gene, S79F, K137N mutation in QRDR of ParC gene and I460V mutation in QRDR of ParE gene by agar dilution method
Streptococcus pneumoniae [25] = test: Antibacterial activity against Streptococcus pneumoniae HMC 1062 harboring S81F mutation in quinolone-resistant determining regions of GyrA gene, S79F mutation in QRDR of ParC gene and I460V mutation in QRDR of ParE gene by agar dilution method
Streptococcus pneumoniae [26] = test: Antibacterial activity against Streptococcus pneumoniae HMC 1068 harboring E85K mutation in quinolone-resistant determining regions of GyrA gene, S79Y, K137N mutation in QRDR of ParC gene and I460V mutation in QRDR of ParE gene showing efflux to ciprofloxacin, levofloxacin by agar dilution method
Streptococcus pneumoniae [27] = test: Antibacterial activity against penicillin-, macrolide- and quinolone-susceptible Streptococcus pneumoniae HMC 63 by broth microdilution method
Streptococcus pneumoniae [28] = test: Antibacterial activity against macrolide-, quinolone-susceptible and penicillin-intermediate Streptococcus pneumoniae HMC 100 by broth microdilution method
Streptococcus pneumoniae [29] = test: Antibacterial activity against quinolone-susceptible and penicillin-intermediate Streptococcus pneumoniae HMC 441 expressing ermB by broth microdilution method
Streptococcus pneumoniae [30] = test: as §2, with “gene, S79Y” for “gene, D83N”, “after 38” for “after 28”, “with gatifloxacin” for “with DC-159a”
Streptococcus pneumoniae [31] = test: Antibacterial activity against penicillin-, macrolide-susceptible and quinolone-resistant Streptococcus pneumoniae HMC 1074 harboring S81F mutation in quinolone-resistant determining regions of GyrA gene, S79F mutation in QRDR of ParC gene and I460V mutation in QRDR of ParE gene after 50 passages by broth microdilution method

| Compound | MIC (Streptococcus pneumoniae [1]) | MIC (Streptococcus pneumoniae [2]) | MIC (Streptococcus pneumoniae [3]) | MIC (Streptococcus pneumoniae [4]) | MIC (Streptococcus pneumoniae [5]) | MIC (Streptococcus pneumoniae [6]) | MIC (Streptococcus pneumoniae [7]) | MIC (Streptococcus pneumoniae [8]) | MIC (Streptococcus pneumoniae [9]) | MIC (Streptococcus pneumoniae [10]) | MIC (Streptococcus pneumoniae [11]) | MIC (Streptococcus pneumoniae [12]) | MIC (Streptococcus pneumoniae [13]) | MIC (Streptococcus pneumoniae [14]) | MIC (Streptococcus pneumoniae [15]) | MIC (Streptococcus pneumoniae [16]) | MIC (Streptococcus pneumoniae [17]) | MIC (Streptococcus pneumoniae [18]) | MIC50 (Streptococcus pneumoniae [22]) | MIC90 (Streptococcus pneumoniae [22]) | further results |
| --- | --- | --- | --- | --- | --- | --- | --- | --- | --- | --- | --- | --- | --- | --- | --- | --- | --- | --- | --- | --- | --- |
| CO/N=C1\CN(c2nc3c(cc2F)c(=O)c(C(=O)O)cn3C2CC2)CC1CN (stereo not drawn) [GEMIFLOXACIN] | 0.25 µg/mL (≈ 0.642 µM) | 0.25 µg/mL (≈ 0.642 µM) | 0.25 µg/mL (≈ 0.642 µM) | 1 µg/mL (≈ 2.57 µM) | 0.5 µg/mL (≈ 1.28 µM) | 0.5 µg/mL (≈ 1.28 µM) | 0.5 µg/mL (≈ 1.28 µM) | 0.5 µg/mL (≈ 1.28 µM) | 0.25 µg/mL (≈ 0.642 µM) | 0.5 µg/mL (≈ 1.28 µM) | 0.06 µg/mL (≈ 0.154 µM) | 0.06 µg/mL (≈ 0.154 µM) | 0.125 µg/mL (≈ 0.321 µM) | 0.03 µg/mL (≈ 0.077 µM) | 1 µg/mL (≈ 2.57 µM) | 0.5 µg/mL (≈ 1.28 µM) | 1 µg/mL (≈ 2.57 µM) | 2 µg/mL (≈ 5.14 µM) | 0.25 µg/mL (≈ 0.642 µM) | 1 µg/mL (≈ 2.57 µM) | MIC50 (Streptococcus pneumoniae [19]): 0.03 µg/mL (≈ 0.077 µM); MIC90 (Streptococcus pneumoniae [19]): 0.25 µg/mL (≈ 0.642 µM); MIC50 (Streptococcus pneumoniae [20]): 0.03 µg/mL (≈ 0.077 µM); MIC90 (Streptococcus pneumoniae [20]): 0.25 µg/mL (≈ 0.642 µM); MIC50 (Streptococcus pneumoniae [21]): 0.03 µg/mL (≈ 0.077 µM); MIC90 (Streptococcus pneumoniae [21]): 0.06 µg/mL (≈ 0.154 µM); MIC (Streptococcus pneumoniae [23]): 0.25 µg/mL (≈ 0.642 µM); MIC (Streptococcus pneumoniae [24]): 0.125 µg/mL (≈ 0.321 µM); MIC (Streptococcus pneumoniae [25]): 1 µg/mL (≈ 2.57 µM); MIC (Streptococcus pneumoniae [26]): 0.5 µg/mL (≈ 1.28 µM); MIC (Streptococcus pneumoniae [27]): 0.06 µg/mL (≈ 0.154 µM); MIC (Streptococcus pneumoniae [28]): 0.06 µg/mL (≈ 0.154 µM); MIC (Streptococcus pneumoniae [29]): 0.016 µg/mL (≈ 0.0411 µM); MIC (Streptococcus pneumoniae [30]): > 64 µg/mL |
| COc1c(N2C[C@@H]3CCCN[C@@H]3C2)c(F)cc2c(=O)c(C(=O)O)cn(C3CC3)c12 [MOXIFLOXACIN] | 2 µg/mL (≈ 4.98 µM) | 2 µg/mL (≈ 4.98 µM) | 4 µg/mL (≈ 9.96 µM) | 4 µg/mL (≈ 9.96 µM) | 4 µg/mL (≈ 9.96 µM) | 4 µg/mL (≈ 9.96 µM) | 4 µg/mL (≈ 9.96 µM) | 2 µg/mL (≈ 4.98 µM) | 4 µg/mL (≈ 9.96 µM) | 4 µg/mL (≈ 9.96 µM) | 0.12 µg/mL (≈ 0.299 µM) | 0.125 µg/mL (≈ 0.311 µM) | 0.125 µg/mL (≈ 0.311 µM) | 0.25 µg/mL (≈ 0.623 µM) | 4 µg/mL (≈ 9.96 µM) | 4 µg/mL (≈ 9.96 µM) | 2 µg/mL (≈ 4.98 µM) | 2 µg/mL (≈ 4.98 µM) | 4 µg/mL (≈ 9.96 µM) | 4 µg/mL (≈ 9.96 µM) | MIC (Streptococcus pneumoniae [31]): 8 µg/mL (≈ 19.9 µM); MIC (Streptococcus pneumoniae [23]): 4 µg/mL (≈ 9.96 µM); MIC (Streptococcus pneumoniae [24]): 4 µg/mL (≈ 9.96 µM); MIC (Streptococcus pneumoniae [25]): 4 µg/mL (≈ 9.96 µM); MIC (Streptococcus pneumoniae [26]): 4 µg/mL (≈ 9.96 µM); MIC (Streptococcus pneumoniae [27]): 0.25 µg/mL (≈ 0.623 µM); MIC (Streptococcus pneumoniae [28]): 0.25 µg/mL (≈ 0.623 µM); MIC (Streptococcus pneumoniae [29]): 0.12 µg/mL (≈ 0.299 µM); MIC (Streptococcus pneumoniae [30]): 4 µg/mL (≈ 9.96 µM) |
